Measured values reported in patent US20150105252A1, “SUBSTITUTED PYRAZOLES AS HERBICIDES” (E I DU PONT DE NEMOURS AND COMPANY, priority 2013, published 2015).

How the values were obtained:
barnyardgrass [1] = test: Test A preemergence; format: in vivo, Echinochloa crus-galli; settings: preemergence; for Barnyardgrass plant response rating (0 to 100 scale, 0 is no effect, 100 is complete control): visual injury approx. 10 days after treatment
Summary of the method: (§1)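 Greenhouse test in loam soil/sand blend; compounds formulated in non-phytotoxic solvent with surfactant, applied as preemergence directed soil spray or postemergence to plants 2–10 cm tall at one- to two-leaf stage. Injury rated visually versus untreated controls after approximately 10 days on a 0 (no effect) to 100 (complete control) scale.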

crabgrass, large [2] = test: Test A preemergence; format: in vivo, Digitaria sanguinalis; settings: preemergence; for Crabgrass, Large plant response rating (0 to 100 scale): visual injury approx. 10 days after treatment
Summary of the method: as §1

foxtail, giant [3] = test: Test A preemergence; format: in vivo, Setaria faberii; settings: preemergence; for Foxtail, Giant plant response rating (0 to 100 scale): visual injury approx. 10 days after treatment
Summary of the method: as §1

morningglory [4] = test: Test A preemergence; format: in vivo, Ipomoea spp.; settings: preemergence; for Morningglory plant response rating (0 to 100 scale): visual injury approx. 10 days after treatment
Summary of the method: as §1

pigweed [5] = test: Test A preemergence; format: in vivo, Amaranthus retroflexus; settings: preemergence; for Pigweed plant response rating (0 to 100 scale): visual injury approx. 10 days after treatment
Summary of the method: as §1

velvetleaf [6] = test: Test A preemergence; format: in vivo, Abutilon theophrasti; settings: preemergence; for Velvetleaf plant response rating (0 to 100 scale): visual injury approx. 10 days after treatment
Summary of the method: as §1

wheat [7] = test: Test A preemergence; format: in vivo, Triticum aestivum; settings: preemergence; for Wheat plant response rating (0 to 100 scale): visual injury approx. 10 days after treatment
Summary of the method: as §1

corn [8] = test: Test A preemergence; format: in vivo, Zea mays; settings: preemergence; for Corn plant response rating (0 to 100 scale): visual injury approx. 10 days after treatment
Summary of the method: as §1

barnyardgrass [9] = test: Test A postemergence; format: in vivo, Echinochloa crus-galli
Summary of the method: as §1

crabgrass, large [10] = test: Test A postemergence; format: in vivo, Digitaria sanguinalis
Summary of the method: as §1

foxtail, giant [11] = test: Test A postemergence; format: in vivo, Setaria faberii
Summary of the method: as §1

morningglory [12] = test: Test A postemergence; format: in vivo, Ipomoea spp.
Summary of the method: as §1

pigweed [13] = test: Test A postemergence; format: in vivo, Amaranthus retroflexus
Summary of the method: as §1

velvetleaf [14] = test: Test A postemergence; format: in vivo, Abutilon theophrasti
Summary of the method: as §1

wheat [15] = test: Test A postemergence; format: in vivo, Triticum aestivum
Summary of the method: as §1

corn [16] = test: Test A postemergence; format: in vivo, Zea mays
Summary of the method: as §1

rice = test: Test B flood; format: in vivo, Oryza sativa; settings: 250 g ai/ha, visual rating on 0 to 100 scale (0 no effect, 100 complete control), 13 to 15 days
Summary of the method: (§2)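 Plants were grown to the 2-leaf stage and pots flooded to 3 cm above soil. Compounds were applied directly into the paddy water, with depth kept for the test. After 13–15 days in greenhouse, response was rated visually against controls on a 0 (no effect) to 100 (complete control) scale.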

sedge, umbrella = test: Test B flood; format: in vivo, Cyperus difformis; settings: 250 g ai/ha, visual rating on 0 to 100 scale (0 no effect, 100 complete control), 13 to 15 days
Summary of the method: as §2

ducksalad = test: Test B flood; format: in vivo, Heteranthera limosa; settings: 250 g ai/ha, visual rating on 0 to 100 scale (0 no effect, 100 complete control), 13 to 15 days
Summary of the method: as §2

barnyardgrass [17] = test: Test B flood; format: in vivo, Echinochloa crus-galli; settings: 250 g ai/ha, visual rating on 0 to 100 scale (0 no effect, 100 complete control), 13 to 15 days
Summary of the method: as §2

[18] = 125 g ai/ha, visual injury, 0 to 100 scale, approx. 10 days
[19] = 500 g ai/ha, visual injury after approx. 10 days, 0 to 100 scale (0 no effect, 100 complete control)
[20] = Postemergence, 500 g ai/ha, visual rating after approx. 10 days, 0 to 100 scale (0 no effect, 100 complete control)
[21] = postemergence, 125 g ai/ha, about 10 days, visual rating on 0 to 100 scale (0 no effect, 100 complete control)
[22] = Postemergence, 500 g ai/ha, 0 to 100 scale (0 no effect, 100 complete control)
[23] = Postemergence, 125 g ai/ha, 0 to 100 scale, 0 no effect, 100 complete control

SMILES	Barnyardgrass plant response rating (barnyardgrass [1]; [19])	Crabgrass, Large plant response rating (crabgrass, large [2]; [19])	Foxtail, Giant plant response rating (foxtail, giant [3]; [19])	Morningglory plant response rating (morningglory [4]; [19])	Pigweed plant response rating (pigweed [5]; [19])	Velvetleaf plant response rating (velvetleaf [6]; [19])	Wheat plant response rating (wheat [7]; [19])	Corn plant response rating (corn [8]; [19])	Barnyardgrass plant response rating (barnyardgrass [9]; [21])	Crabgrass, Large plant response rating (crabgrass, large [10]; [21])	Foxtail, Giant plant response rating (foxtail, giant [11]; [21])	Morningglory plant response rating (morningglory [12]; [21])	Pigweed plant response rating (pigweed [13]; [21])	Velvetleaf plant response rating (velvetleaf [14]; [21])	Wheat plant response rating (wheat [15]; [21])	Corn plant response rating (corn [16]; [21])	Plant response rating, Rice (rice)	Plant response rating, Sedge, Umbrella (sedge, umbrella)	Plant response rating, Ducksalad (ducksalad)	Plant response rating, Barnyardgrass (barnyardgrass [17])	further results
CCCc1cc(-c2ccc(C(F)(F)F)cc2)nn1Cc1ccnc(C(F)(F)F)c1 [Compound 113]	60	100	100	70	100	40	30	10	10	20	20	40	60	40	20	20	30	70	60	40	Barnyardgrass plant response rating (barnyardgrass [1]; [18]): 20; Crabgrass, Large plant response rating (crabgrass, large [2]; [18]): 80; Foxtail, Giant plant response rating (foxtail, giant [3]; [18]): 80; Morningglory plant response rating (morningglory [4]; [18]): 40; Pigweed plant response rating (pigweed [5]; [18]): 100; Velvetleaf plant response rating (velvetleaf [6]; [18]): 30; Wheat plant response rating (wheat [7]; [18]): 10; Corn plant response rating (corn [8]; [18]): 10; Barnyardgrass plant response rating (barnyardgrass [9]; [20]): 20; Crabgrass, Large plant response rating (crabgrass, large [10]; [20]): 40; Foxtail, Giant plant response rating (foxtail, giant [11]; [20]): 40; Morningglory plant response rating (morningglory [12]; [20]): 100; Pigweed plant response rating (pigweed [13]; [20]): 100; Velvetleaf plant response rating (velvetleaf [14]; [20]): 100; Wheat plant response rating (wheat [15]; [20]): 20; Corn plant response rating (corn [16]; [20]): 20
CCc1cc(C(=O)NCC(F)(F)F)nn1Cc1nc(C(F)(F)F)no1 [Compound 184]	100	100	90	100	100	50	20	30	0	0	0	–	–	–	–	0	0	0	0	0	Barnyardgrass plant response rating (0 to 100 scale, 0 is no effect, 100 is complete control) (barnyardgrass [1]; 125 g ai/ha): 0; Crabgrass, Large plant response rating (0 to 100 scale) (crabgrass, large [2]; 125 g ai/ha): 50; Foxtail, Giant plant response rating (0 to 100 scale) (foxtail, giant [3]; 125 g ai/ha): 60; Morningglory plant response rating (0 to 100 scale) (morningglory [4]; 125 g ai/ha): 20; Pigweed plant response rating (0 to 100 scale) (pigweed [5]; 125 g ai/ha): 60; Velvetleaf plant response rating (0 to 100 scale) (velvetleaf [6]; 125 g ai/ha): 0; Wheat plant response rating (0 to 100 scale) (wheat [7]; 125 g ai/ha): 0; Corn plant response rating (0 to 100 scale) (corn [8]; 125 g ai/ha): 0; Barnyardgrass plant response rating (barnyardgrass [9]; [22]): 60; Crabgrass, Large plant response rating (crabgrass, large [10]; [22]): 70; Foxtail, Giant plant response rating (foxtail, giant [11]; [22]): 40; Morningglory plant response rating (morningglory [12]; [23]): 30; Morningglory plant response rating (morningglory [12]; [22]): 90; Pigweed plant response rating (pigweed [13]; [23]): 60; Pigweed plant response rating (pigweed [13]; [22]): 90; Velvetleaf plant response rating (velvetleaf [14]; [23]): 50; Velvetleaf plant response rating (velvetleaf [14]; [22]): 60; Wheat plant response rating (wheat [15]; [23]): 0; Wheat plant response rating (wheat [15]; [22]): 20; Corn plant response rating (corn [16]; [22]): 60
O=C(NCC(F)(F)F)c1cc(Br)n(Cc2cccc(C(F)(F)F)c2)n1 [Compound 161]	0	70	20	0	80	0	0	0	10	20	10	30	40	30	0	0	0	0	0	0	Barnyardgrass plant response rating (barnyardgrass [1]; [18]): 0; Crabgrass, Large plant response rating (0 to 100 scale) (crabgrass, large [2]; 125 g ai/ha): 10; Foxtail, Giant plant response rating (0 to 100 scale) (foxtail, giant [3]; 125 g ai/ha): 0; Morningglory plant response rating (0 to 100 scale) (morningglory [4]; 125 g ai/ha): 0; Pigweed plant response rating (0 to 100 scale) (pigweed [5]; 125 g ai/ha): 10; Velvetleaf plant response rating (0 to 100 scale) (velvetleaf [6]; 125 g ai/ha): 0; Wheat plant response rating (0 to 100 scale) (wheat [7]; 125 g ai/ha): 0; Corn plant response rating (0 to 100 scale) (corn [8]; 125 g ai/ha): 0; Barnyardgrass plant response rating (barnyardgrass [9]; [22]): 10; Crabgrass, Large plant response rating (crabgrass, large [10]; [22]): 30; Foxtail, Giant plant response rating (foxtail, giant [11]; [22]): 20; Morningglory plant response rating (morningglory [12]; [22]): 50; Pigweed plant response rating (pigweed [13]; [22]): 70; Velvetleaf plant response rating (velvetleaf [14]; [22]): 50; Wheat plant response rating (wheat [15]; [22]): 0; Corn plant response rating (corn [16]; [22]): 10
O=C(NC1CC1)c1cc(I)n(Cc2cccc(C(F)(F)F)c2)n1 [Compound 180]	40	100	90	0	100	0	0	0	0	10	10	0	70	0	0	0	0	0	0	0	Barnyardgrass plant response rating (0 to 100 scale, 0 is no effect, 100 is complete control) (barnyardgrass [1]; 125 g ai/ha): 0; Crabgrass, Large plant response rating (0 to 100 scale) (crabgrass, large [2]; 125 g ai/ha): 30; Foxtail, Giant plant response rating (0 to 100 scale) (foxtail, giant [3]; 125 g ai/ha): 10; Morningglory plant response rating (0 to 100 scale) (morningglory [4]; 125 g ai/ha): 0; Pigweed plant response rating (0 to 100 scale) (pigweed [5]; 125 g ai/ha): 10; Velvetleaf plant response rating (0 to 100 scale) (velvetleaf [6]; 125 g ai/ha): 0; Wheat plant response rating (0 to 100 scale) (wheat [7]; 125 g ai/ha): 0; Corn plant response rating (0 to 100 scale) (corn [8]; 125 g ai/ha): 0; Barnyardgrass plant response rating (barnyardgrass [9]; [22]): 30; Crabgrass, Large plant response rating (crabgrass, large [10]; [22]): 30; Foxtail, Giant plant response rating (foxtail, giant [11]; [22]): 30; Morningglory plant response rating (morningglory [12]; [22]): 80; Pigweed plant response rating (pigweed [13]; [22]): 100; Velvetleaf plant response rating (velvetleaf [14]; [22]): 30; Wheat plant response rating (wheat [15]; [22]): 0; Corn plant response rating (corn [16]; [22]): 0
